pEC50: −log10 of the molar value. Like-named read-outs stand apart in the source and are kept apart here.
Tests used:
LXRβ full length (FL) = biological target: T1, LXRβ full length (FL) (Homo sapiens, UniProt P55055, INS174Q); assay: LXR Gal4 reporter transient transfection assay, mammalian two-hybrid, FL-M2H Gal4β; assay type: cell-based; conditions: HEK293 cells; inverse agonist unless *
T1 construct: the full length (FL) proteins of LXRα (amino acids 1-447); NP005684; NP009052; expressed in transfected cells; host or cells: HEK293
T1 sequence (P55055 with tags, fused parts or gaps INS174Q): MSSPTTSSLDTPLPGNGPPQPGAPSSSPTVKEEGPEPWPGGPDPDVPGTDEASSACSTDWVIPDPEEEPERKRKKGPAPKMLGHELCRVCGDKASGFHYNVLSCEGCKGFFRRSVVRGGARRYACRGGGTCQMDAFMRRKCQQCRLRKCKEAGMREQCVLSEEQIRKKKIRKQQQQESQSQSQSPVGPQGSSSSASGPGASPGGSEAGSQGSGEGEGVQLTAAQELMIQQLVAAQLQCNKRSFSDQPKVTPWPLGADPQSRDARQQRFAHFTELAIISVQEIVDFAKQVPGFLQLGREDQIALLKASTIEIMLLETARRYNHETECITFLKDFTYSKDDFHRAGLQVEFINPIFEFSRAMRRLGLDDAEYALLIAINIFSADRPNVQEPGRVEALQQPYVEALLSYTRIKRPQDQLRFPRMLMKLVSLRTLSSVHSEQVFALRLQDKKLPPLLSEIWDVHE
In short: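 HEK293 cells transiently cotransfected with NFkB-AD fusions of full-length or LBD LXRα/β, GAL4-DBD fusions of SRC1 coactivator or NCoR corepressor domains, GAL4-driven firefly luciferase and Renilla control. Compound added 4 h post-transfection (≤0.2% DMSO), 16 h incubation; firefly and Renilla luminescence read sequentially.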

[1] = Pharmacokinetics in mice after single oral dosing, blood and liver exposure by LC-MS; assay type: in vivo, mice (C57/bl6/J); conditions: single oral dose 20 mg/kg; for Kp at 12 h / Kp at 4 h / Kp at 24 h: male, C57/bl6/J, mouse, liver/blood, read-out: liver/blood ratio
In short: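 Male C57BL/6J mice fasted ≥12 h, given a single oral dose of 20 mg/kg (n=3 per group). Sacrifice at 4, 12 or 24 h post-dose; liver and blood levels quantified by LC-MS.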

[2] = Short term HFD mouse model: liver and plasma exposure after multiple oral dosing; assay type: in vivo, mice (C57BL/6J); conditions: C57BL/6J, HFD mice, 4 h after final dose; for Kp at 4 h: liver/plasma, read-out: liver/plasma ratio, 4 h
Description: Short Term HFD Mouse Model:
For this, C57BL/6J were purchased from Elevage Janvier (Rennes, France) at the age of 8 weeks. After an acclimation period of two weeks, animals were prefed on a high fat diet (HFD) (Ssniff Spezialdiäten GmbH, Germany, Surwit EF D12330 mod, Cat. No. E15771-34), with 60 kcal % from fat plus 1% (w/w) extra cholesterol (Sigma-Aldrich, St. Louis, Mo.) for 5 days. Animals were maintained on this diet during treatment with LXR modulators. The test compounds were formulated in 0.5% hydroxypropylmethylcellulose (HPMC) and administered in three doses (from 1.5 to 20 mg/kg each) by oral gavage according to the following schedule: on day one, animals received treatment in the morning and the evening (ca. 17:00), on day two animals received the final treatment in the morning after a 4 h fast and were sacrificed 4 h thereafter. Animal work was conducted according to the national guidelines for animal care in Germany.
Multiple oral dosing of compounds from the present invention in mice lead to a high liver exposure with a favourable liver to plasma ratio. […] These genes are related to hepatic de-novo lipogenesis. A suppression of these genes will reduce liver fat (liver triglycerides).

[3] = liver, three oral doses of 20 mg/kg each, read-out: liver exposure, 4 h
[4] = three oral doses of 20 mg/kg each
[5] = plasma, three oral doses of 20 mg/kg each, read-out: plasma exposure, 4 h
[6] = liver, three oral doses of 10 mg/kg each, read-out: liver exposure, 4 h
[7] = three oral doses of 10 mg/kg each
[8] = plasma, three oral doses of 10 mg/kg each, read-out: plasma exposure, 4 h
[9] = liver, three oral doses of 1.5 mg/kg each, read-out: liver exposure, 4 h
[10] = three oral doses of 1.5 mg/kg each
[11] = plasma, three oral doses of 1.5 mg/kg each, read-out: plasma exposure, 4 h

Structure (SMILES)	pEC50 (LXRβ full length (FL))	Kp at 12 h ([1]; time point 12 h)	blood/plasma exposure ([1]; time point 12 h) [µM]	liver exposure ([1]; time point 12 h) [µM]	concentration at 4 h [2, 3] [µM]	Kp at 4 h [2, 4]	concentration at 4 h [2, 5] [µM]	Kp at 4 h ([1]; time point 4 h)	Kp at 24 h ([1]; time point 24 h)	blood/plasma exposure ([1]; time point 4 h) [µM]	liver exposure ([1]; time point 4 h) [µM]	blood/plasma exposure ([1]; time point 24 h) [µM]	liver exposure ([1]; time point 24 h) [µM]	concentration at 4 h [2, 6] [µM]	Kp at 4 h [2, 7]	concentration at 4 h [2, 8] [µM]	concentration at 4 h [2, 9] [µM]	Kp at 4 h [2, 10]	concentration at 4 h [2, 11] [µM]	further results
CCc1nc2ccccc2c(C(=O)N(Cc2ccc(-c3cccc(C(C)(C)C(=O)O)c3)cc2)Cc2ccc(C(F)(F)F)o2)c1C [27/43]	> 7.00	49	0.03	1.3	44.3	32.5	1.36													
Cc1ccc2ccccc2c1CN(Cc1ccc(-c2cccc(C(C)(C)C(=O)O)c2)cc1)Cc1ccc(C(F)(F)F)o1 [Example 24, 2-Methyl-2-(4′-((((2-methylnaphthalen-1-yl)methyl)((5-(trifluoromethyl)furan-2-yl)methyl)amino)methyl)-[1,1′-biphenyl]-3-yl)propanoic acid]	> 7.00	5.7	0.21	1.2	8.93	2.5	3.52	11	2.9	0.96	10.3	0.04	0.13							concentration at 4 h ([2]; liver, three oral doses of 5 mg/kg each, read-out: liver exposure, 4 h): 2.6 µM; Kp at 4 h ([2]; three oral doses of 5 mg/kg each): 2.9; concentration at 4 h ([2]; plasma, three oral doses of 5 mg/kg each, read-out: plasma exposure, 4 h): 0.893 µM
Cc1ccc2ccccc2c1C(=O)N(Cc1ccc(C(F)(F)F)o1)Cc1ncc(-c2cccc(C(C)(C)C(=O)O)c2)cc1Cl [27/78]	> 7.00							116		0.35	40.9			18.4	61.3	0.3				
CCOC(=O)c1ccc(CN(Cc2ccc(-c3cccc(C(C)(C)C(=O)O)c3)cc2)C(=O)c2c(C)ccc3ccccc23)o1 [27/28]	> 7.00				13.8	1790	0.008	844		0.05	38.8						4.3	600	0.007	
Cc1ccc2ccccc2c1C(=O)N(Cc1ccc(-c2cccc(C(C)(O)C(=O)O)c2)cc1)Cc1ccc(C(F)(F)F)o1 (stereo not drawn) [27/10]	> 7.00	129	0.01	1.3										43.3	30	1.44				concentration at 4 h ([2]; liver, three oral doses of 3 mg/kg each, read-out: liver exposure, 4 h): 9.93 µM; Kp at 4 h ([2]; three oral doses of 3 mg/kg each): 211; concentration at 4 h ([2]; plasma, three oral doses of 3 mg/kg each, read-out: plasma exposure, 4 h): 0.047 µM
Cc1ccc2ccccc2c1C(=O)N(Cc1ccc(-c2cccc(C(C)(C)C(=O)O)c2)cc1)Cc1ccc(C(F)(F)F)o1 [27/26]	> 7.00	3.3	6.4	21	44.6	2.9	15.3	5.5	3.6	16	89	0.75	2.7				6.73	6.5	1.04	
